The series has as its target T1, Solute carrier organic anion transporter family member 1A1 (Rattus norvegicus, UniProt P46720).
T1 sequence (P46720 whole entry): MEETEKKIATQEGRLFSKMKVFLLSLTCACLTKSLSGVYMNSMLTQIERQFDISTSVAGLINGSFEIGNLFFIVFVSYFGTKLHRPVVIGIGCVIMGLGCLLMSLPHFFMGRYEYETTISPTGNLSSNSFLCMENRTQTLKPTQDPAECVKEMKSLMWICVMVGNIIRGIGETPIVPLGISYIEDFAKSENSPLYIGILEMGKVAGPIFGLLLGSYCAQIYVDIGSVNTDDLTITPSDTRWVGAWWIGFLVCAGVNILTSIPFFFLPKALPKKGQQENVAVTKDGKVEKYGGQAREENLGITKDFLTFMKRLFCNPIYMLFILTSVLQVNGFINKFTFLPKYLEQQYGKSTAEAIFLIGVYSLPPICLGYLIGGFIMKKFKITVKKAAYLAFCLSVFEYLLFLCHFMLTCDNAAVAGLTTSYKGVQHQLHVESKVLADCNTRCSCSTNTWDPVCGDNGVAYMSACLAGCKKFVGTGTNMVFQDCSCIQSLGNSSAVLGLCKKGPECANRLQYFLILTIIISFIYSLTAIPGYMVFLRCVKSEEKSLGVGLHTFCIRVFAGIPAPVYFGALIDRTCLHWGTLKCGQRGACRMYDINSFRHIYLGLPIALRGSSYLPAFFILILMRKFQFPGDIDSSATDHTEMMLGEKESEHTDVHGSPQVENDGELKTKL
Nature of the series: TP_TRANSPORTER: uptake in Xenopus laevis oocytes. The series is classed as functional, cell-based. Conditions: oocyte.

Turning to `CCCCNc1cc(C(=O)O)cc(S(N)(=O)=O)c1Oc1ccccc1` [BUMETANIDE], the Activity result was “is not a substrate [-]”.

The values above are taken from ChEMBL document CHEMBL2073982, “Bumetanide is not transported by the Ntcp or by the oatp: evidence for a third organic anion transporter in rat liver cells” (Biochim Biophys Acta, 1996).
